Source: US11147792B2, “Inhibitors of microbially induced amyloid” (Axial Therapeutics, Inc, priority 2017, dated 2021)
“Also recorded” adds a separate entry of the source. Read-outs that look alike come from different tables or passages of the source.

Tests used:
[1] = molecular target: T1, E. coli CsgA (Escherichia coli, UniProt P28307); assay: In vitro ThioflavinT assay of CsgA aggregation; format: biochemical; settings: CsgA at 20 μM, ThT fluorescence at 18 hours
T1 construct: made in house; host or cells: E. coli NEB 3016 slyD::kan, pET11d
T1 sequence (P28307 23-151): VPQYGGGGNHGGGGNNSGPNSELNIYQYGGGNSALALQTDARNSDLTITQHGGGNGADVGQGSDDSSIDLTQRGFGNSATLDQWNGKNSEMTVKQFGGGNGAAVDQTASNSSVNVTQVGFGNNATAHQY
Protocol: In Vitro ThioflavinT Assay to Determine Effects of Compounds on CsgA Aggregation.
To assess the effects of compounds on aggregation of E. coli CsgA, a cell-free assay was performed using purified CsgA and Thioflavin T. In the assay, histidine-tagged CsgA was over-expressed in E. coli NEB 3016 slyD::kan cells harboring a pET11d vector containing csgA with the sequence for 6 histidine residues added to the C-terminus and without the Sec signal (amino acid 1-22) sequence. To induce over-expression of CsgA, 0.5 mM isopropyl β-D-1-thiogalactopyranoside (“IPTG”) was added to cultures with an optical density at 600 nm (OD600) of 0.8-1, and induced cells were cultured at 37° C. for 1 hour prior to harvest via centrifugation. Cells were lysed under denaturing conditions with 8 M guanidine hydrochloride in 50 mM potassium phosphate buffer pH 7.3, and CsgA was purified via immobilized-metal affinity chromatography by batch purification with Nickel-NTA agarose and a combination of low pressure and gravity flow through a disposable polypropylene column, including washes under low pressure applied manually via application of a syringe plunger to the column with 50 mM potassium phosphate buffer pH 7.3 followed by 12.5 mM imidazole in 50 mM potassium phosphate buffer pH 7.3, and elution by gravity flow with 125 mM imidazole in 50 mM potassium phosphate buffer pH 7.3. Buffers with imidazole were freshly prepared prior to the protein purification. Purified CsgA was passed through a 30 kDa molecular weight cut-off filter and passed through a desalting column. All steps of the CsgA purification in the absence of guanidine hydrochloride were conducted in rapid succession with as little delay as possible. The assay was conducted in 96-well black microplates with 40 μM ThioflavinT, 1% DMSO, CsgA at 20 μM, and compounds at 20 μM. Plates were incubated at 25° C. in a Tecan Nano F200 plate reader with excitation at 438 nm using a 439 nm filter with a bandwidth of 8 nm, and emission at 495 nm with a 490 nm filter with a bandwidth of 10 nm. During the assay, plates were shaken initially for 5 seconds and subsequently for 3 seconds prior to fluorescent readings. Readings were performed every 20 minutes for up to 24 hours. The effect of compounds on CsgA aggregation in the assay was determined with data from 18 hours, following the plateau of the fluorescent signal in the untreated (no compound) control wells containing CsgA. Fluorescence values for each compound with CsgA were first adjusted by subtracting the average fluorescence of the compound in the absence of CsgA. These adjusted values were normalized by dividing them by the average fluorescence in the no-compound (i.e., untreated) control wells containing CsgA […], and the average normalized fluorescence with the compound was expressed as a percentage of the average fluorescence observed in untreated controls.

[2] = system: αSyn aggregates in brain of Thy1-αSyn mice (ASO); assay: Brain αSyn aggregates in germ-free ASO mice mono-colonized with WT E. coli, EGCG in drinking water; format: in vivo, mouse; settings: EGCG-treated vs vehicle
Protocol: Germ-free Thy1-αSyn mice (ASO) mono-colonized with WT E. coli at 5-6 weeks of age, and given water alone (Vehicle: Veh) or treated with EGCG ad lib in drinking water (+EGCG). RNA was extracted from fecal pellets and csgA expression quantified by qRT-PCR, relative to rrsA. FIG. 1C is a graph showing fold-change in csgA expression. Motor function was assessed at 15-16 weeks of age by quantifying beam traversal time (FIG. 1D), pole descent time (FIG. 1E), nasal adhesive removal time (FIG. 1F), hindlimb clasping score (FIG. 1G), and wire hang tests (FIG. 1H). Time to cross, time to descent, time to remove, and hindlimb score were lower in the EGCG-treated mice, while time to fall was higher in the EGCG-treated mice compared to vehicle treated control. […]
FIGS. 1L-M show quantification of insoluble αSyn fibrils in the striatum (FIG. 1L) and ventral midbrain (FIG. 1M) by dot blot assay. Thin sections of brain were stained for Iba1 (microglia), 3D cellular reconstructions generated, and morphological characteristics quantified from microglia resident in the striatum (FIG. 1N) and substantia and nigra (FIG. 1O). n=3 (FIGS. 1A, 1B, 1N, 1O), n=8 (FIG. 1C), n=10-11 (FIGS. 1D-I), n=4 (FIGS. 1L-M). […] Data analyzed by one-way ANOVA with Tukey post-hoc test for FIG. 1A, two-tailed Mann-Whitney for FIGs. […]

In the case of `O=C(O[C@@H]1Cc2c(O)cc(O)cc2O[C@@H]1c1cc(O)c(O)c(O)c1)c1cc(O)c(O)c(O)c1` [EGCG, epigallocatechin gallate], the inhibition at 20 µM ([1]; read-out: Inhibition of Aggregation CsgA (compound activity range), compounds at 20 μM) is reported as 30 to 60%, the inhibition at 20 µM ([1]; read-out: Inhibition of Aggregation CsgA, compounds at 20 μM) is reported as 56% and the “αSyn aggregation in striatum and midbrain” value [2] is reported as “preventing αSyn aggregation in both the striatum and midbrain”. The “Proteinase K resistant αSyn aggregates in the substantia nigra” value ([2]; immunofluorescence microscopy) was “lower; also recorded: Fewer”.
